Holding throughout (assay type): cell-based
In one series the test system is GFP-PIP5K1C. Put plainly: Cellular thermal shift assay (CETSA). The settings on record: versus DMSO control, Western blot. On the procedure:
(§1) The chemically treated cells were heated to 56 °C for 3 min to denature and precipitate nontargeted proteins. The heated cells were immediately snap-frozen in liquid nitrogen overnight. After the cells were frozen and thawed twice, the tubes were briefly vortexed. The resulting cell lysates were subjected to SDS‒PAGE.
(§2) Fig. 1 UNI418 specifically targets PIP5K1 and PIKfyve. a Chemical structure of UNI418. The 4-quinazolinamine core is highlighted in green. b Table of the kinase profiling analysis. Inhibition of several kinases was determined at a 1 μM concentration of UNI418 and analyzed by the SelectScreen Kinase Profiling Service (Thermo Fisher Scientific). c Cellular thermal shift assay. Ectopically expressed GFP-PIP5K1C and GFP-PIKfyve were heated to the indicated temperatures with/without UNI418, and the presence of protein in the soluble fraction was analyzed by Western blot analysis. […]
On the technique in general: In western blotting, separated proteins are transferred to a membrane and probed.

A further series deals with GFP-PIKfyve. Put plainly: Cellular thermal shift assay (CETSA). The settings on record: versus DMSO control, Western blot. On the procedure: as §1, §2
Another series has as its system RPE1 cells. Nature of the series: LAMP1 accumulation (Western blot and immunofluorescence). An excerpt: Supplementary Fig. 9 UNI418 is not a simple lysosomotropic agent. a Western blot of LAMP1 with UNI418 and Chloroquine. GAPDH was used as a loading control. NT, not treated. b Immunofluorescence images showing accumulation of LAMP1 in RPE1 cells with the indicated concentration of Chloroquine and UNI418 treatment, and images within the white rectangular boxes are zoomed in on the right side. Scale bar, 20 µm. c The mean of intensity in individual cell was quantified. Data presented as mean ± SEMs, n >20.
Significance was determined by Student’s t-test, ***p < 0.001.
(1 picture or pasted object on this page, not shown here)

Turning to `c1ccc(-c2cc(Nc3nc(-c4ccncc4)nc4ccccc34)n[nH]2)cc1` [UNI418, N -(5-phenyl-1 H -pyrazol-3-yl)-2-(4-pyridinyl)-4-quinazolinamine], the “thermal stabilization of target protein in soluble fraction” value in the series on GFP-PIP5K1C and in the series with GFP-PIKfyve was “more stable at higher temperatures” throughout. The “accumulation of LAMP1 or LAMP1-positive lysosomes” value in the series with RPE1 cells was “did not cause the accumulation”.

(Values after publication PMC11372076, “A dual inhibitor of PIP5K1C and PIKfyve prevents SARS-CoV-2 entry into cells” (Experimental & Molecular Medicine, 2024).)
